Results: patent publication US12024503B2, “Benzethers and anilines of pyrazolyl-amino-pyrimidinyl derivatives, and compositions and methods thereof” (LYNK PHARMACEUTICALS CO. LTD., priority 2019, dated 2024)

How the values were obtained:
Format in all cases: biochemical
[1] = molecular target: T1, JAK1 (Homo sapiens, UniProt P23458); experiment: JAK1 microfluidic kinase assay (Caliper EZ Reader II, FAM labeled peptide substrate); conditions: (5 nM), 1 mM ATP; Table 2; read-out: IC50 JAK1 (5 nM) (1 mM ATP)
T1 construct: purchased Carna Biosciences
Procedure: (§1) Compounds were tested against JAK1, JAK2, JAK2V617F and TYK2.
(§2) Assay Formats: JAK activity was determined in the reaction buffer 50 mM HEPES, 0.01% Brij35, 10 mMMgCl2, 2 mMDTT by a microfluidic assay. The phosphorylation of a FAM labeled peptide substrate was monitored in the Caliper EZ Reader II (Perkin Elmer). The assay condition for each batch of enzyme (Carna Biosciences) was optimized to obtain 10% conversion rate of peptide substrate.
(§3) The test compounds were dissolved in DMSO to a stock concentration of 10 mM. 3-fold serially diluted compounds with top concentration of 5 μM were pre-incubated with JAK1, JAK2, JAK2V617F or TYK2 for 10 min at ambient temperature. The final DMSO concentration of assay mixture was 1%. FAM labeled peptide substrate (final concentration […]) and ATP (1 mM concentration) were sequentially added to initiate the kinase reaction at 28° C. The reaction was stopped by adding 50 mMEDTA. The reaction time for JAK1, JAK2, JAK2V617F and TYK2 was 120 min, 20 min, 30 min and 10 min, respectively.
(§4) The well in the test plate without enzyme was defined as 100% inhibition. And the well without compound but with equivalent DMSO was defined as no inhibition. The percent inhibition was calculated by the following formula. % Inhibition=(Conversionmax−Conversionsample)/(Conversionmax−Conversionmin)*100Conversionmax means the conversion rate in the positive well without addition of compound Conversionmin means the conversion rate in the well without addition of enzyme Conversionsample means the conversion rate of test compounds
(§5) The dose-response (percent inhibition) curve was plotted and IC50 values were determined by GraphPad software.

[2] = molecular target: T2, JAK2 (Homo sapiens, UniProt O60674); experiment: JAK2 microfluidic kinase assay (Caliper EZ Reader II, FAM labeled peptide substrate); conditions: (0.25 nM), 1 mM ATP; Table 2; read-out: IC50 JAK2 (0.25 nM) (1 mM ATP)
T2 construct: purchased Carna Biosciences
Procedure: as §1, §2, §3, §4, §5

[3] = molecular target: T3, JAK2V617F (Homo sapiens, UniProt O60674, V617F); experiment: JAK2V617F microfluidic kinase assay (Caliper EZ Reader II, FAM labeled peptide substrate); conditions: (2.5 nM), 1 mM ATP; Table 2; read-out: IC50 J2V617F (2.5 nM) (1 mM ATP)
T3 construct: purchased Carna Biosciences
Procedure: as §1, §2, §3, §4, §5

[4] = molecular target: T4, TYK2 (Homo sapiens, UniProt P29597); experiment: TYK2 microfluidic kinase assay (Caliper EZ Reader II, FAM labeled peptide substrate); conditions: (2.5 nM), 1 mM ATP; Table 2; read-out: IC50 TYK2 (2.5 nM) (1 mM ATP)
T4 construct: purchased Carna Biosciences
Procedure: as §1, §2, §3, §4, §5

T1 sequence (P23458 whole entry): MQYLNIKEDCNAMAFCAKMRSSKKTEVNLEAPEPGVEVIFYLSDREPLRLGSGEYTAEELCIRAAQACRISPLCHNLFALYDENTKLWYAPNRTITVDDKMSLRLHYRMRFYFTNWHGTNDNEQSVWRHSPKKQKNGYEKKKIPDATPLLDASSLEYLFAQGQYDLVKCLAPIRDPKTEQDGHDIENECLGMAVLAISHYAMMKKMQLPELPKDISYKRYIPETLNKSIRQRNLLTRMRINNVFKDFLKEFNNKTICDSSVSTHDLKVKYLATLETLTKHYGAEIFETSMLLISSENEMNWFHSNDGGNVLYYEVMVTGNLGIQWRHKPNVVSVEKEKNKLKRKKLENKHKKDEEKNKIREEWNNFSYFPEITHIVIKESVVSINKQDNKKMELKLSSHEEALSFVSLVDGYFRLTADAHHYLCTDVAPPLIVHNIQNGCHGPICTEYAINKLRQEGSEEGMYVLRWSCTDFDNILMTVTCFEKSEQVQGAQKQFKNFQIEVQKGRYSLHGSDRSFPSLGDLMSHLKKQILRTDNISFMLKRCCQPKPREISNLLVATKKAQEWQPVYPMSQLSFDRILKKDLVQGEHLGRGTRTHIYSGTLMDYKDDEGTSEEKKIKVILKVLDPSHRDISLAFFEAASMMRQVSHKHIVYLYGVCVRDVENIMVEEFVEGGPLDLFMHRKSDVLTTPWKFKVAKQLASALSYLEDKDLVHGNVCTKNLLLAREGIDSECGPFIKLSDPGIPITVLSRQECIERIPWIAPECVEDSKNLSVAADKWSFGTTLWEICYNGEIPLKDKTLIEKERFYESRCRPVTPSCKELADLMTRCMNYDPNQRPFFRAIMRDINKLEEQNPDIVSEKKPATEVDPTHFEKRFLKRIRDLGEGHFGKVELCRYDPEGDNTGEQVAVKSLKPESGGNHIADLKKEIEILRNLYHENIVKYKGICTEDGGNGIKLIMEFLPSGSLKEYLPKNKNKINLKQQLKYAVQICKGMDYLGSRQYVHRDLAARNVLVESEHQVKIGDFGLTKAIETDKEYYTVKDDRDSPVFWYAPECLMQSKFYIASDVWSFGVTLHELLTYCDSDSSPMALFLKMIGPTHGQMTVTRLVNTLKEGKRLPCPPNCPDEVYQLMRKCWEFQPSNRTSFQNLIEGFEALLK
T2 sequence (O60674 whole entry): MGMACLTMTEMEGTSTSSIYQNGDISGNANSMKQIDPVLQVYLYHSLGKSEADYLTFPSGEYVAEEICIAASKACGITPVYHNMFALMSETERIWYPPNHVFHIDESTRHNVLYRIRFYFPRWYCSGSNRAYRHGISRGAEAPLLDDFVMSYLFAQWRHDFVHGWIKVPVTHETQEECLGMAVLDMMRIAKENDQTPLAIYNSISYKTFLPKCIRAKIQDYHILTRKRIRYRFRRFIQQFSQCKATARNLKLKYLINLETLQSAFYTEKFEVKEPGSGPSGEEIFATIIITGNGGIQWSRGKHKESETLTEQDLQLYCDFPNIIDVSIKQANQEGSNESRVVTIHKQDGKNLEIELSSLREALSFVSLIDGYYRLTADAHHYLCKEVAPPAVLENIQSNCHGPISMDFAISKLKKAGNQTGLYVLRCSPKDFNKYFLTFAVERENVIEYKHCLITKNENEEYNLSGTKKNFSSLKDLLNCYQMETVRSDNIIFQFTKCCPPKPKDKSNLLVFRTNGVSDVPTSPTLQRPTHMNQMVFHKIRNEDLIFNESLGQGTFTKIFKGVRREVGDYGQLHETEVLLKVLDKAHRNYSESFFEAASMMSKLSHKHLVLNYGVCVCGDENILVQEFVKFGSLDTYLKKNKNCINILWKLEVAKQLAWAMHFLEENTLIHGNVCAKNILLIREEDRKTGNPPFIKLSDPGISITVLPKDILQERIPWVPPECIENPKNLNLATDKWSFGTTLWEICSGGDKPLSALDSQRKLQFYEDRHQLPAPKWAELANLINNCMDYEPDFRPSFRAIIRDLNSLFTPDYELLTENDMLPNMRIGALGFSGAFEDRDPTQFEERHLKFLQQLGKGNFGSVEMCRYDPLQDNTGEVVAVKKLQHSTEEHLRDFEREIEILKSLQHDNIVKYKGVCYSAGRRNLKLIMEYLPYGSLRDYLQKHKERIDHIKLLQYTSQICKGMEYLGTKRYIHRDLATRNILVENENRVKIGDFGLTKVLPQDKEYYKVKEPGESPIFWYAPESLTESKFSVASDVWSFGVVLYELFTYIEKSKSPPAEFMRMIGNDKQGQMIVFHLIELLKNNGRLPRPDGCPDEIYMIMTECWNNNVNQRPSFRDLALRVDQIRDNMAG
T3 sequence (O60674 whole entry V617F): as the sequence (O60674 whole entry) above, with V617F counted along it
T4 sequence (P29597 whole entry): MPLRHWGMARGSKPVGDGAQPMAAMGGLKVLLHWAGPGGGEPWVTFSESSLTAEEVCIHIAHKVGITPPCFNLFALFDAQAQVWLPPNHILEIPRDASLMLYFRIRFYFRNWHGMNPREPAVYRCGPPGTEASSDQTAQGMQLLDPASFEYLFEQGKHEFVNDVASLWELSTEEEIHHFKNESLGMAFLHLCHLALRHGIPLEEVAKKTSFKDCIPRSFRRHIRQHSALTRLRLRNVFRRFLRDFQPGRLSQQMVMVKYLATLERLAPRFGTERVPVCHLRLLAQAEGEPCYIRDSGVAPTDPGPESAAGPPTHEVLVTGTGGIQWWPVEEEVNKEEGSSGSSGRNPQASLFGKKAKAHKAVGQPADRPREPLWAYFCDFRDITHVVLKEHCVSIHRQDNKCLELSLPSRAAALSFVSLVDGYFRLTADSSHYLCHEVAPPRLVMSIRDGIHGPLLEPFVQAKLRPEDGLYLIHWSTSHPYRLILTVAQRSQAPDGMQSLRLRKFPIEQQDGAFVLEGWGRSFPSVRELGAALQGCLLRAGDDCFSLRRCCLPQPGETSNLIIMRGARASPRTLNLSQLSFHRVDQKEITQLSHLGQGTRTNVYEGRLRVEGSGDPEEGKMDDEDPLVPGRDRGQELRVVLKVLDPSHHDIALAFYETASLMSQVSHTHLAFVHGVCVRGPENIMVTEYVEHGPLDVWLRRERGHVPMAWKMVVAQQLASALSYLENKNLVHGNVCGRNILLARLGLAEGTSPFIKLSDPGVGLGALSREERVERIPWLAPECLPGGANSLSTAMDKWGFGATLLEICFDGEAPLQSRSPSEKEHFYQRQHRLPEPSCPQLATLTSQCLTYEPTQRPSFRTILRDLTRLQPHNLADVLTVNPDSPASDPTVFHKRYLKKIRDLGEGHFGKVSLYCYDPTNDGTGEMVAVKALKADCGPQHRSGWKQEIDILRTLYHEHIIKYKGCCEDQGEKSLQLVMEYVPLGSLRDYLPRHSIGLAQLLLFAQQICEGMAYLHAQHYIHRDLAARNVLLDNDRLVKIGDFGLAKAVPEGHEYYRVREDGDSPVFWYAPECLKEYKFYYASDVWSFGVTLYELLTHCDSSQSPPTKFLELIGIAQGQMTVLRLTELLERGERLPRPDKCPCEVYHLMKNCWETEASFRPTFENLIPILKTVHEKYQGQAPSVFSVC

Row | Compound | IC50 [1] | IC50 [2] | IC50 [3] | IC50 [4]
1 | Cc1cnc(Nc2cnn(C3CC3)c2)nc1-c1ccc(N(C)CC2(C#N)CC2)c(F)c1 [Example 33, 1-(((4-(2-((1-cyclopropyl-1H-pyrazol-4-yl)amino)-5-methylpyrimidin-4-yl)-2-fluorophenyl)(methyl)amino)methyl) cyclopropanecarbonitrile] | 10.8 nM | < 0.25 nM | 6.16 nM | 30 nM
2 | Cc1cnc(Nc2cnn(C3CCN(C)CC3)c2)nc1-c1ccc(OCC(C)(C)C#N)cc1 [Example 17, 2,2-dimethyl-3-(4-(5-methyl-2-((1-(1-methylpiperidin-4-yl)-1H-pyrazol-4-yl)amino)pyrimidin-4-yl)phenoxy)propanenitrile] | < 2.5 nM | < 0.25 nM | < 1.25 nM | < 1.25 nM
3 | COCCn1cc(Nc2ncc(C)c(-c3ccc(OCC4(C#N)CC4)c(F)c3)n2)cn1 [Example 21, 1-((2-fluoro-4-(2-((1-(2-methoxyethyl)-1H-pyrazol-4-yl)amino)-5-methylpyrimidin-4-yl)phenoxy)methyl)cyclopropane-carbonitrile] | 7.31 nM | < 0.25 nM | < 1.25 nM | < 1.25 nM
